Reference: publication PMC6934184, “Selective DNA-PKcs inhibition extends the therapeutic index of localized radiotherapy and chemotherapy” (The Journal of Clinical Investigation, 2019)

Molecular target: T1, MARK1 (MARK) (Homo sapiens, UniProt Q9P0L2)
T1 construct: purchased Thermo Fisher Scientific (Life Technologies) SelectScreen
Assay: SelectScreen Z'LYTE
Format: biochemical
How it was run: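 Percent values come from Thermo SelectScreen profiling of NU5455, combining activity and binding assays. CSF1R was run in Z'LYTE format at Km app ATP, and CAMK1 in Adapta format with ATP listed at 10.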

T1 sequence (Q9P0L2 whole entry): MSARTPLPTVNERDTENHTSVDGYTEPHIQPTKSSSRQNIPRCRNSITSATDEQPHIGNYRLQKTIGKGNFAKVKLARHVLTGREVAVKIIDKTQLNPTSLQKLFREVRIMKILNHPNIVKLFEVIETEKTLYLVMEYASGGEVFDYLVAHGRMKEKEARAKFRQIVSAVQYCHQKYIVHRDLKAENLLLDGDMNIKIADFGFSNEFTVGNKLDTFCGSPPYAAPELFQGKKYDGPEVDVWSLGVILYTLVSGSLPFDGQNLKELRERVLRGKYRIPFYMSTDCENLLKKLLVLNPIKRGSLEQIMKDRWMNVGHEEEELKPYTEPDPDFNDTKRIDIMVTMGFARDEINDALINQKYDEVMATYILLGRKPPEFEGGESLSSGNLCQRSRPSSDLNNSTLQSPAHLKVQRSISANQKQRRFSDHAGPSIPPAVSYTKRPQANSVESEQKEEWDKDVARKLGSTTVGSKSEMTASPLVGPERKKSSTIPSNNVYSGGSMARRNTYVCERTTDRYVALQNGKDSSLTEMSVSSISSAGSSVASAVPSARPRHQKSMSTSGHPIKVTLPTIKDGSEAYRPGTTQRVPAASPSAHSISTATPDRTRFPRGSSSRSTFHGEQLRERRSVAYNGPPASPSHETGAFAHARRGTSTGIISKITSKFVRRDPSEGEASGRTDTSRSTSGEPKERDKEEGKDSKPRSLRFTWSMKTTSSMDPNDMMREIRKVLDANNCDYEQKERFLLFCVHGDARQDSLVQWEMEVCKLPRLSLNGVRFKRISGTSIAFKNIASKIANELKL

SMILES: CN(C(=O)CN1CCOCC1)c1ccc2sc3c(-c4cccc5c(=O)cc(N6CC7CCC(C6)O7)oc45)cccc3c2c1 [NU5455]
- inhibition at 1 µM: 5.1%
